Assay results: publication PMC9911596 (Nature Communications, 2023)

Target: T1, Vtc1/Vtc3/Vtc4 complex (VTC complex) (Saccharomyces cerevisiae, UniProt P47075+Q02725)
T1 construct: full-length subunits co-expressed in Expi293F; Vtc1 C-terminal HA, Vtc3 N-terminal 3xFlag, Vtc4 C-terminal 2xStrep; detergent-purified; 3:1:1 pentamer; with Vacuolar transporter chaperone complex subunit 1
T1 sequence (P47075 1-721): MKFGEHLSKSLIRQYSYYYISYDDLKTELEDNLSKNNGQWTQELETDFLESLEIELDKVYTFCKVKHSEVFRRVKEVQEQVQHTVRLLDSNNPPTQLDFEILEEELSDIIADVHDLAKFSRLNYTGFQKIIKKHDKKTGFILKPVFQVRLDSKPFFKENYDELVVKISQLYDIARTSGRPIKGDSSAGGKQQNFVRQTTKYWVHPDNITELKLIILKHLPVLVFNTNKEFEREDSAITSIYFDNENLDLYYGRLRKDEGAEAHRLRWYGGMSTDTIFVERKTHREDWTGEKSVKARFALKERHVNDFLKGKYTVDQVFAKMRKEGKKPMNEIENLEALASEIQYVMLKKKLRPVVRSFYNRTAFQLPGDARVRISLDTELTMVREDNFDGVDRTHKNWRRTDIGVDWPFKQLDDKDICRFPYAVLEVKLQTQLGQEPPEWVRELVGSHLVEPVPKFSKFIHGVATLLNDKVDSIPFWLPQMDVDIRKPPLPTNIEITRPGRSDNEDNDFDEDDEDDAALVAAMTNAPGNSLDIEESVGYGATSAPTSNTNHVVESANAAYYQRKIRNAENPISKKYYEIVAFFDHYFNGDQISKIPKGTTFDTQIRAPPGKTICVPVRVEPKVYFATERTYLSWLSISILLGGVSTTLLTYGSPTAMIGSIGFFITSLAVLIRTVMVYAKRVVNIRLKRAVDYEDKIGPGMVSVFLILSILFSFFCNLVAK
T1 sequence (Q02725 1-835): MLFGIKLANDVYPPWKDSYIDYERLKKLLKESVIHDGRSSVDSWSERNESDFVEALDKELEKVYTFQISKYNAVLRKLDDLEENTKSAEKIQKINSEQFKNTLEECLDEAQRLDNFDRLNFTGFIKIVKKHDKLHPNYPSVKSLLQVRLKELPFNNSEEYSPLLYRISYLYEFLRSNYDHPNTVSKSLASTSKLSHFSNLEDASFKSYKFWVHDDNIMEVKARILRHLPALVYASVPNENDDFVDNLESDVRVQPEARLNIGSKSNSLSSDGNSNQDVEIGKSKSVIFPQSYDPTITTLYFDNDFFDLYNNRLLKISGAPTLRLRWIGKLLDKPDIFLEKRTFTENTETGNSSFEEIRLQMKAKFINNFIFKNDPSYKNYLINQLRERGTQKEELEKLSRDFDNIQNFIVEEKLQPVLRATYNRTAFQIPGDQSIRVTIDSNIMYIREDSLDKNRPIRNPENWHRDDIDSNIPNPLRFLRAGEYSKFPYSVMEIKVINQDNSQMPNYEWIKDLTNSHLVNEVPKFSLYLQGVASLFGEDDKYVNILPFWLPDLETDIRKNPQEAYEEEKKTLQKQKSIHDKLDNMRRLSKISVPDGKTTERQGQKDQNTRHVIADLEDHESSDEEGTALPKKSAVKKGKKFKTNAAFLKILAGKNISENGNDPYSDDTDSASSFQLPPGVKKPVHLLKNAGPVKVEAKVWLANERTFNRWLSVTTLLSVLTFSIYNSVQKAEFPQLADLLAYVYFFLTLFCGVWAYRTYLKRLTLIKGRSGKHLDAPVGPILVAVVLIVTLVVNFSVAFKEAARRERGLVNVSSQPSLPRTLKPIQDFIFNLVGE
T1 sequence (P40046 22-129 partner): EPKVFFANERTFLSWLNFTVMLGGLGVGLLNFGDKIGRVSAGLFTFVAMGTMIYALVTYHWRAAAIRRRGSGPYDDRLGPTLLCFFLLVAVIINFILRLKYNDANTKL
Assay: polyP synthesis, TBE-PAGE; smFRET
Type: biochemical
Conditions: 1 mM InsP6; activator; deletion of Vtc1 N-terminus

SMILES: O=P(O)(O)O[C@H]1[C@H](OP(=O)(O)O)[C@@H](OP(=O)(O)O)[C@H](OP(=O)(O)O)[C@@H](OP(=O)(O)O)[C@H]1OP(=O)(O)O [InsP6]
- polyP synthesis, TBE-PAGE; smFRET: mutant VTC complex that can no longer be activated by the InsP6 stimulus
